Entries after “also recorded” stand apart in the source; their conditions may differ.
Tests used:
[1] = tested on: DUX4; experiment: RT PCR of DUX4 transcripts in primary human cells; type: cell-based; conditions: normal(NR201) and FSHD2(2305) primary human cells, 3 μM GSKi
Method: (§1) Primary human myoblasts were obtained by written informed consent through the Fields Center at the University of Rochester cell bank. Myoblasts were grown in F10 medium (INVITROGEN, Carlsbad, Calif.) supplemented with 20% fetal bovine serum (FBS; THERMO SCIENTIFIC (HYCLONE), and 50 U/50 μg penicillin/streptomycin (Pen-Strep; INVITROGEN), 10 ng bFGF (INVITROGEN), and 1 μM dexamethasone (SIGMA ALDRICH; St. Louis, […].)^9. Differentiation was induced using F10 medium supplemented with 1% equine serum and ITS supplement (insulin 0.1%, 0.000067% sodium selenite, 0.055% transferrin; INVITROGEN), or in DMEM:F12 (1:1) with 3.151 g/L glucose, 10 mM non-essential amino acids (INVITROGEN), […] sodium pyruvate, 20% knockout serum replacer (INVITROGEN, #10828010). Pharmacological inhibitor of glycogen synthase kinase-3-β (GSKi) was used at a final concentration of 3 μM (CHIR99021, STEMGENT; Cambridge. Mass.). Recombinant human Wnt3A was used at a concentration of 250 ng/mL, and confirmed to be bioactive prior to use in the assays described herein.
RNA was isolated by TRIZOL extraction according to the manufacturers protocol (INVITROGEN), except that the final ethanol precipitate was resuspended 1×DNase I buffer and 5 U DNase I for 15 mins and the RNA was extracted with phenol/chloroform and precipitated with ethanol using RNase-free glycogen (NEW ENGLAND BIOLABS) as a carrier. […]

[2] = tested on: FSHD-myotubes; experiment: DUX4-mediated myotube death / apoptosis in FSHD myotubes differentiated in KOSR medium; type: cell-based, human; conditions: for DUX4-mediated myotube death: FSHD-myotubes, KOSR differentiation medium, data not shown
Method: Primary human myoblasts were obtained by written informed consent through the Fields Center at the University of Rochester cell bank. […] Pharmacological inhibitor of glycogen synthase kinase-3-β (GSKi) was used at a final concentration of 3 μM (CHIR99021, STEMGENT; Cambridge. Mass.).
(§2) Immunofluorescent staining for DUX4 was performed using the E5-5 rabbit monoclonal antibody to the C-terminus of DUX4 ^34. Staining was performed by fixing the cells in 4% paraformaldehyde for 10 mins at room temperature, washing with PBS, permeablizing with 0.5% TritonX-100 in PBS for 10 mins at room temperature. The cells were then washed again in PBS and incubated overnight in a 1:10 dilution of the E5-5 antibody. The following day, the cells were washed 3×5 min in PBS and stained using a fluorescent conjugated secondary goat-anti rabbit secondary antibody for 1-2 hr at room temperature. Following a final wash, the cells were counterstained with 4′,6-Diamidino-2-phenylindole dihydrochloride (DAPI, SIGMA ALDRICH), and visualized by microscopy using UV illumination.
To quantify DUX4 expression, the Nikon Ti Eclipse microscope was programmed using the Nikon Elements software to take 36 pictures at random on a 35 mm culture dish, or to scan an entire well of a 384 well dish. These images were then manually inspected and DUX4 (+) nuclei counted. To determine the myotube index, the Nikon Elements software was used to create binary masks of the DAPI and MHC channels for each image. This technique created a border around each nucleus or cluster of nuclei which could then be used to measure the sum pixel intensity from the DAPI channel. The average sum pixel intensity for single nuclei from each image was determined, and used to calculate the number of nuclei within clusters. By intersecting the binary images from the DAPI and MHC channels the inventors could exclude the nuclei that were outside of MHC(+) myotubes, and create a myotube fusion index. The myotube fusion index was compared to manual counts to confirm accuracy of the calculations.

[3] = tested on: DUX4; experiment: Immunofluorescent count of DUX4(+) nuclei in MHC(+) myotubes; type: cell-based, human; conditions: for reduction in the number of nuclei expressing DUX4: FSHD1(2349) myotubes, KOSR medium
Method: as §1
as §2, with “Following a final wash, the cells were counterstained with 4′,6-Diamidino-2-phenylindole dihydrochloride (DAPI, SIGMA ALDRICH), and visualized by microscopy using UV illumination.” left out
To quantify DUX4 expression, the Nikon Ti Eclipse microscope was programmed using the Nikon Elements software to take 36 pictures at random on a 35 mm culture dish, or to scan an entire well of a 384 well dish. These images were then manually inspected and DUX4 (+) nuclei counted. […] The average sum pixel intensity for single nuclei from each image was determined, and used to calculate the number of nuclei within clusters. […]

[4] = tested on: FSHD myotubes; experiment: Cell viability assay (ATP content normalized to DNA content); type: cell-based, human; conditions: cultured in the absence or presence of GSKi
Method: Hoescht Dye was added to cells in culture for 30 minutes at a final concentration of 5 μM. Following detachment with trypsin a 50 μL aliquot of the cells was assayed for fluorescence at 355 nm to give an absorbance value for DNA content. An equal volume of CELL TITRE GLO (PROMEGA) was then added to the aliquot, and luminescence was measured. The luminescent value was normalized to the absorbance value for DNA content.

[5] = tested on: DUX4 promoter; experiment: D4Z4(FFL) DUX4 promoter luciferase reporter in C2C12 cells; type: cell-based; conditions: 3 μM GSKi, vs DMSO
Method: The D4Z4 regulatory region controlling the expression of DUX4^31 was subcloned upstream of the open reading from of the pGL3-basic vector (pGL3) to make D4Z4(FFL). The D4Z4(FFL) was excised using XbaI/SpeI restriction enzymes and ligated into the SpeI site of a 3rd generation lentiviral vector multiple cloning site (pRRL-sinc-PPT-MCS; Gift from Dr. Grant Trobridge).
Cells transduced with D4Z4(FFL) lentivirus vector were seeded in a 96 well dish. Thirty minutes prior to the assay, Hoescht Dye was added to the cell culture medium to a final concentration of 5 μm, and 30 min later the plate was analyzed for DNA content by measuring fluorescence at 355 nm using a multiwell plate reader (ENVISION; PERKIN-ELMER). An equal volume of STEADY-GLO (PROMEGA) was added to each well, and transferred to an opaque dish. Luminescence was read using the plate reader, and normalized to DNA content for each well.

Cc1c[nH]c(-c2cnc(NCCNc3ccc(C#N)cn3)nc2-c2ccc(Cl)cc2Cl)n1 [GSKi]
upregulation of DUX4 expression during myotube formation (DUX4 transcripts) [1]: reduced the characteristic upregulation of DUX4 expression | myotube apoptosis ([2]; FSHD myotubes, GSKi treatment alone (3 μM)): did not prevent myotube apoptosis; also recorded: insufficient to prevent apoptosis | reduction in the number of DUX4(+) nuclei in myotubes ([3]; FSHD myoblasts differentiated in the presence of 3 μM GSKi, three cell lines): greater than 50% | ATP content of myoblasts or myotubes [4]: No difference | upregulation of DUX4 expression during myotube formation (luciferase activity normalized to DNA content) [5]: reduced the characteristic upregulation of DUX4 expression

O=C(NCc1ccccc1)c1csc(Nc2ccncn2)n1 [Thiazovivin]
DUX4-mediated myotube death [2]: also prevented DUX4-mediated myotube death | reduction in the number of nuclei expressing DUX4 ([3]; 0.5 μM Thiazovivin): 10 fold

C[C@@H](N)[C@H]1CC[C@H](C(=O)Nc2ccncc2)CC1 [Y-27632]
DUX4-mediated myotube death [2]: also prevented DUX4-mediated myotube death | reduction in the number of nuclei expressing DUX4 ([3]; 10 μM Y-27632): 10 fold

O=C1O[C@H]([C@@H](O)CO)C(O)=C1O [ascorbic acid]
DUX4-mediated myotube death [2]: observed DUX4-dependent myotube apoptosis despite treatments

Cc1ccc(C(=O)Cn2c3c(sc2=N)CCCC3)cc1 [pifithrin-α]
DUX4-mediated myotube death [2]: efficiently prevented DUX4-mediated myotube death

OCCS [β-mercapto-ethanol]
DUX4-mediated myotube death [2]: observed DUX4-dependent myotube apoptosis despite treatments

Arsenic trioxide
DUX4-mediated myotube death [2]: efficiently prevented DUX4-mediated myotube death

Source: patent US20150301067A1, “METHODS AND ASSAYS FOR FACIOSCAPULOHUMERAL MUSCULAR DYSTROPHY” (UNIVERSITY OF WASHINGTON THROUGH ITS CENTER FOR …, priority 2012, published 2015)
